Laboratory results taken from the NIST ThermoML archive (doi:10.1016/j.jct.2005.07.011).
Numbers after ± are expanded uncertainties.

Test: excess molar enthalpy (molar enthalpy of mixing); xn = mol fraction of the nth substance listed
Conditions: Liquid, Flow calorimetry

CCC(C)O (stereo unspecified) [butan-2-ol] + COC(=O)OC
Conditions | excess molar enthalpy [kcal/mol]
298.15 K, 1000 kPa, x2 = 0.05 | 0.126 ± 0.00454
298.15 K, 1000 kPa, x2 = 0.1 | 0.237 ± 0.00454
298.15 K, 1000 kPa, x2 = 0.15 | 0.328 ± 0.00454
298.15 K, 1000 kPa, x2 = 0.2 | 0.4 ± 0.00478
298.15 K, 1000 kPa, x2 = 0.25 | 0.459 ± 0.00478
298.15 K, 1000 kPa, x2 = 0.3 | 0.5033 ± 0.00502
298.15 K, 1000 kPa, x2 = 0.35 | 0.5352 ± 0.00502
298.15 K, 1000 kPa, x2 = 0.4 | 0.5549 ± 0.00502
298.15 K, 1000 kPa, x2 = 0.45 | 0.5664 ± 0.00502
298.15 K, 1000 kPa, x2 = 0.5 | 0.568 ± 0.00502
298.15 K, 1000 kPa, x2 = 0.55 | 0.5595 ± 0.00478
298.15 K, 1000 kPa, x2 = 0.6 | 0.5407 ± 0.00454
298.15 K, 1000 kPa, x2 = 0.65 | 0.5126 ± 0.0043
298.15 K, 1000 kPa, x2 = 0.7 | 0.4758 ± 0.00406
298.15 K, 1000 kPa, x2 = 0.75 | 0.43 ± 0.00359
298.15 K, 1000 kPa, x2 = 0.8 | 0.3661 ± 0.00311
298.15 K, 1000 kPa, x2 = 0.9 | 0.2152 ± 0.00186
298.15 K, 1000 kPa, x2 = 0.95 | 0.1148 ± 0.00108
313.15 K, 100 kPa, x2 = 0.051 | 0.124 ± 0.00454
313.15 K, 100 kPa, x2 = 0.102 | 0.238 ± 0.00454
313.15 K, 100 kPa, x2 = 0.148 | 0.323 ± 0.0043
313.15 K, 100 kPa, x2 = 0.202 | 0.412 ± 0.00454
313.15 K, 100 kPa, x2 = 0.251 | 0.4757 ± 0.0043
313.15 K, 100 kPa, x2 = 0.352 | 0.5707 ± 0.00502
313.15 K, 100 kPa, x2 = 0.4 | 0.6006 ± 0.00502
313.15 K, 100 kPa, x2 = 0.45 | 0.6191 ± 0.00502
313.15 K, 100 kPa, x2 = 0.501 | 0.6252 ± 0.00502
313.15 K, 100 kPa, x2 = 0.551 | 0.6211 ± 0.00502
313.15 K, 100 kPa, x2 = 0.6 | 0.6077 ± 0.00502
313.15 K, 100 kPa, x2 = 0.649 | 0.5813 ± 0.00478
313.15 K, 100 kPa, x2 = 0.701 | 0.5413 ± 0.00478
313.15 K, 100 kPa, x2 = 0.749 | 0.4921 ± 0.00454
313.15 K, 100 kPa, x2 = 0.799 | 0.426 ± 0.00454
313.15 K, 100 kPa, x2 = 0.849 | 0.345 ± 0.00454
313.15 K, 100 kPa, x2 = 0.899 | 0.248 ± 0.00478
313.15 K, 100 kPa, x2 = 0.951 | 0.128 ± 0.00478
313.15 K, 1000 kPa, x2 = 0.051 | 0.127 ± 0.00454
313.15 K, 1000 kPa, x2 = 0.098 | 0.234 ± 0.00454
313.15 K, 1000 kPa, x2 = 0.149 | 0.328 ± 0.00454
313.15 K, 1000 kPa, x2 = 0.198 | 0.411 ± 0.00454
313.15 K, 1000 kPa, x2 = 0.251 | 0.4777 ± 0.0043
313.15 K, 1000 kPa, x2 = 0.348 | 0.5696 ± 0.00502
313.15 K, 1000 kPa, x2 = 0.4 | 0.5987 ± 0.00502
313.15 K, 1000 kPa, x2 = 0.451 | 0.6176 ± 0.00502
313.15 K, 1000 kPa, x2 = 0.501 | 0.6242 ± 0.00502
313.15 K, 1000 kPa, x2 = 0.551 | 0.6223 ± 0.00502
313.15 K, 1000 kPa, x2 = 0.6 | 0.6059 ± 0.00502
313.15 K, 1000 kPa, x2 = 0.649 | 0.5827 ± 0.00478
313.15 K, 1000 kPa, x2 = 0.701 | 0.542 ± 0.00478
313.15 K, 1000 kPa, x2 = 0.749 | 0.4932 ± 0.00454
313.15 K, 1000 kPa, x2 = 0.799 | 0.426 ± 0.00454
313.15 K, 1000 kPa, x2 = 0.85 | 0.346 ± 0.0043
313.15 K, 1000 kPa, x2 = 0.899 | 0.248 ± 0.00478
313.15 K, 1000 kPa, x2 = 0.951 | 0.126 ± 0.00502
313.15 K, 10000 kPa, x2 = 0.051 | 0.135 ± 0.00478
313.15 K, 10000 kPa, x2 = 0.1 | 0.248 ± 0.00478
313.15 K, 10000 kPa, x2 = 0.15 | 0.344 ± 0.00454
313.15 K, 10000 kPa, x2 = 0.2 | 0.425 ± 0.00454
313.15 K, 10000 kPa, x2 = 0.25 | 0.4896 ± 0.00454
313.15 K, 10000 kPa, x2 = 0.301 | 0.5404 ± 0.00478
313.15 K, 10000 kPa, x2 = 0.35 | 0.5784 ± 0.00478
313.15 K, 10000 kPa, x2 = 0.399 | 0.6045 ± 0.00502
313.15 K, 10000 kPa, x2 = 0.451 | 0.6203 ± 0.00502
313.15 K, 10000 kPa, x2 = 0.501 | 0.6251 ± 0.00502
313.15 K, 10000 kPa, x2 = 0.551 | 0.6178 ± 0.00502
313.15 K, 10000 kPa, x2 = 0.599 | 0.6019 ± 0.00502
313.15 K, 10000 kPa, x2 = 0.65 | 0.5699 ± 0.00502
313.15 K, 10000 kPa, x2 = 0.751 | 0.4739 ± 0.0043
313.15 K, 10000 kPa, x2 = 0.801 | 0.413 ± 0.0043
313.15 K, 10000 kPa, x2 = 0.851 | 0.335 ± 0.00454
313.15 K, 10000 kPa, x2 = 0.901 | 0.238 ± 0.00478
313.15 K, 10000 kPa, x2 = 0.949 | 0.127 ± 0.00478
328.15 K, 1000 kPa, x2 = 0.05 | 0.128 ± 0.00478
328.15 K, 1000 kPa, x2 = 0.1 | 0.244 ± 0.00478
328.15 K, 1000 kPa, x2 = 0.15 | 0.345 ± 0.00478
328.15 K, 1000 kPa, x2 = 0.201 | 0.428 ± 0.00478
328.15 K, 1000 kPa, x2 = 0.25 | 0.496 ± 0.00502
328.15 K, 1000 kPa, x2 = 0.302 | 0.5534 ± 0.00502
328.15 K, 1000 kPa, x2 = 0.352 | 0.5928 ± 0.0055
328.15 K, 1000 kPa, x2 = 0.402 | 0.6206 ± 0.0055
328.15 K, 1000 kPa, x2 = 0.45 | 0.6375 ± 0.0055
328.15 K, 1000 kPa, x2 = 0.502 | 0.6437 ± 0.0055
328.15 K, 1000 kPa, x2 = 0.551 | 0.6361 ± 0.00526
328.15 K, 1000 kPa, x2 = 0.603 | 0.6173 ± 0.00526
328.15 K, 1000 kPa, x2 = 0.653 | 0.5904 ± 0.00502
328.15 K, 1000 kPa, x2 = 0.7 | 0.5518 ± 0.00454
328.15 K, 1000 kPa, x2 = 0.751 | 0.496 ± 0.00406
328.15 K, 1000 kPa, x2 = 0.802 | 0.4279 ± 0.00359
328.15 K, 1000 kPa, x2 = 0.9 | 0.2527 ± 0.00215
328.15 K, 1000 kPa, x2 = 0.95 | 0.1345 ± 0.00124

CC(C)(C)O [2-methylpropan-2-ol] + COC(=O)OC
excess molar enthalpy [kcal/mol], 1000 kPa
Conditions | 298.15 K | 328.15 K
x2 = 0.05 | 0.128 ± 0.00454 | 0.124 ± 0.0043
x2 = 0.1 | 0.237 ± 0.00454 | 0.229 ± 0.0043
x2 = 0.15 | 0.329 ± 0.0043 | 0.319 ± 0.0043
x2 = 0.2 | 0.404 ± 0.0043 | 0.399 ± 0.0043
x2 = 0.25 | 0.468 ± 0.0043 | 0.462 ± 0.0043
x2 = 0.3 | 0.5164 ± 0.00454 | 0.5154 ± 0.00454
x2 = 0.35 | 0.554 ± 0.00478 | 0.5556 ± 0.00478
x2 = 0.4 | 0.5848 ± 0.00478 | 0.5831 ± 0.00478
x2 = 0.45 | 0.6031 ± 0.00478 | 0.602 ± 0.00478
x2 = 0.5 | 0.6101 ± 0.00502 | 0.6083 ± 0.00502
x2 = 0.55 | 0.605 ± 0.00502 | 0.6034 ± 0.00478
x2 = 0.6 | 0.5876 ± 0.00478 | 0.5891 ± 0.00478
x2 = 0.65 | 0.5647 ± 0.00478 | 0.5623 ± 0.00478
x2 = 0.7 | 0.5272 ± 0.00454 | 0.5257 ± 0.00454
x2 = 0.75 | 0.4738 ± 0.00454 | 0.4695 ± 0.00454
x2 = 0.8 | 0.412 ± 0.00454 | 0.411 ± 0.00454
x2 = 0.9 | 0.252 ± 0.0043 | 0.245 ± 0.0043
x2 = 0.95 | 0.134 ± 0.00478 | 0.128 ± 0.00478
